Laboratory results: patent US12552790B2, “Positive modulators of the muscarinic acetylcholine receptor M4” (Vanderbilt University, priority 2023, dated 2026)
pEC50: −log10 of the molar value.

Biological target: T1, Human M2 (Homo sapiens, UniProt P08172)
T1 construct: expressed in transfected cells; host or cells: CHO-K1
T1 sequence (P08172 1-466): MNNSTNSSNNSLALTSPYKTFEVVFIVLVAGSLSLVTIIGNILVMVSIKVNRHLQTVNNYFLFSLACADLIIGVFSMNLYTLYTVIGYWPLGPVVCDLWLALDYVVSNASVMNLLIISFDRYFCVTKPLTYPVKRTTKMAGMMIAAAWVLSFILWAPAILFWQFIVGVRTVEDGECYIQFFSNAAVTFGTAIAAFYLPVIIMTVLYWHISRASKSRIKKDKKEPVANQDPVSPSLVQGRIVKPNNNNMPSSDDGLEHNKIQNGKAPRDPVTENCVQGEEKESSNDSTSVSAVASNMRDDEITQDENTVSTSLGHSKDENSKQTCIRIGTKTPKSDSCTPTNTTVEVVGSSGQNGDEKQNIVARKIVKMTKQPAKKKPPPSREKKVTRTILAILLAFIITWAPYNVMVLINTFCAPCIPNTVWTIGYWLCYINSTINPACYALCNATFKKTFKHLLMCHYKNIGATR
Test: M2 cell-based functional assay, calcium mobilization (selectivity)
Settings: for Emax at 30 µM: % ACh maximum at 30 μM; for pEC50: M2 cell-based functional assay, calcium flux
Procedure, shortened: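 CHO-K1 cells stably expressing receptor, Fluo-4-AM loaded (final 1.15 μM), compound added (140 s) then ACh at EC20 and EC80; Ca flux read at 480/530 nm. Normalized to max ACh response; agonist, PAM (EC20 increase) and antagonist (EC80 decrease) activity fitted by four-parameter logistic for EC50 and Emax.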

SMILES: [2H]C1([2H])Oc2ccc(OC3CCN(c4nc5nn(C)c(=O)n5c(C)c4C)CC3)cc2OC1([2H])[2H] [Compound A10, 7-(4-((2,3-dihydrobenzo[b][1,4]dioxin-6-yl-2,2,3,3-d4)oxy)piperidin-1-yl)-2,5,6-trimethyl-[1,2,4]triazolo[4,3-a]pyrimidin-3(2H)-one]
- Emax at 30 µM: 54%
- pEC50: 5.82

SMILES: [2H]C1([2H])Oc2ccc(OC3CCN(c4nc5nn(C)c(=O)n5cc4C)CC3)cc2OC1([2H])[2H] [Compound A6, 7-(4-((2,3-dihydrobenzo[b][1,4]dioxin-6-yl-2,2,3,3-d4)oxy)piperidin-1-yl)-2,6-dimethyl-[1,2,4]triazolo[4,3-a]pyrimidin-3(2H)-one]
- Emax at 30 µM: 68%
- pEC50: 6.30

SMILES: [2H]C1([2H])Oc2ccc(OC3CCN(c4nc5c(cc4C)C(=O)NC5)CC3)cc2OC1([2H])[2H] [Compound 3, 2-(4-((2,3-dihydrobenzo[b][1,4]dioxin-6-yl-2,2,3,3-d4)oxy)piperidin-1-yl)-3-methyl-6,7-dihydro-5H-pyrrolo[3,4-b]pyridin-5-one]
- Emax at 30 µM: 61%
- pEC50: 6.18
